Values quoted from earlier work, collected in patent EP1112064B1, “METHOD FOR PREPARING NOVEL FENOFIBRATE GALENIC FORMULATIONS, GALENIC FORMULATIONS OBTAINED AND APPLICATIONS” (CLL Pharma, Arenas, priority 1998, dated 2000).

résorption intestinale (administered in sunflower oil): presque complète | demi-vie d'élimination (in vivo): ~20 heures | dose de fénofibrate administrée résorbée (one 300 mg capsule during a meal, reaches the blood as fenofibric acid): 60%
Structure (SMILES): CC(C)OC(=O)C(C)(C)Oc1ccc(C(=O)c2ccc(Cl)cc2)cc1 [fénofibrate, 2-(4-(4-chlorobenzoyl)-phénoxy)-2-méthyl propionate d'isopropyle]
